The values below come from US5698522A, “6-position modified decapeptide LHRH antagonists” (Abbott Laboratories, priority 1995, dated 1997).

*1 amine or outer side, *2 acyl side, *3 side chain or, on linkers, in order; H or OH if unused. Where a SMILES comes first, the peptide text is derived from it. Side-chain parts run from the residue outwards. [ ]: non-standard residue; d: D form. The star is where a group is joined. X3 = O=Cn1cc(C[C@@H](NC(=O)C2=C[C@@H](O)[C@@H](O)[C@H](O)C2)C(=O)*)c2ccccc21; NMePhe(4-NH(5-NH2-Trz-3-yl)) = CN[C@@H](Cc1ccc(Nc2n[nH]c(N)n2)cc1)C(=O)O; Shikimoyl = O=C(C1=C[C@@H](O)[C@@H](O)[C@H](O)C1)*; dPhe(4-Cl) = N[C@H](Cc1ccc(Cl)cc1)C(=O)O; d2Nal = N[C@H](Cc1ccc2ccccc2c1)C(=O)O; Acetyl(3-pyridyl) = O=C(Cc1cccnc1)*; Lys(iPr) = CC(C)NCCCC[C@H](N)C(=O)O; NMeY = CN[C@@H](Cc1ccc(O)cc1)C(=O)O; Ethylenediamine = C(CN[*:2])N[*:1]; d3Pal = N[C@H](Cc1cccnc1)C(=O)O; Nicotinoyl = O=C(c1cccnc1)*; X1 = O=C(c1cc2ccccc2cc1O)*; CO = O=C([*:1])[*:2]; X2 = O=C(c1ccoc1)*; azaGly = NNC(=O)O; βAla = NCCC(=O)O; Sar = CNCC(=O)O

This test deals with T1, LHRH receptor (Rattus norvegicus, UniProt P30969).
T1 construct: endogenous in cells
T1 sequence (P30969 1-327): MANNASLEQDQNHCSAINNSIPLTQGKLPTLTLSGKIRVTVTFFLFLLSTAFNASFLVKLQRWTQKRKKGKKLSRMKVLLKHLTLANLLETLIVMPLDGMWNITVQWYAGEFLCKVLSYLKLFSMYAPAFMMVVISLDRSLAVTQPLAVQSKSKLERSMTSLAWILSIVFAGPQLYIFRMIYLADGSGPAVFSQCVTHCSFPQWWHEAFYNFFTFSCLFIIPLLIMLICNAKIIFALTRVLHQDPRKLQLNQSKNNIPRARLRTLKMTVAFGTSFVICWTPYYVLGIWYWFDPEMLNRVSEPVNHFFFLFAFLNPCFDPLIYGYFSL
In words: in vitro LHRH antagonist potency (pA2) against the agonist leuprolide. The format is cell-based. To be noted: negative logarithm of the antagonist concentration which shifts the response curve produced by the agonist leuprolide to two-fold higher concentration. Summed up: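 Functional antagonism against the agonist leuprolide. pA2 is the negative log of antagonist concentration that shifts the leuprolide response curve to twofold higher concentration.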
Usually Kb stands for the equilibrium dissociation constant of an antagonist, usually derived from a functional assay. Regarding `CC(=O)N[C@H](Cc1ccc2ccccc2c1)C(=O)N[C@H](Cc1ccc(Cl)cc1)C(=O)N[C@H](Cc1cccnc1)C(=O)N[C@@H](CO)C(=O)N(C)[C@@H](Cc1ccc(O)cc1)C(=O)N[C@H](CCCCNC(=O)CNC(=O)Cc1cccnc1)C(=O)N[C@@H](CC(C)C)C(=O)N[C@@H](CCCNC(=N)N)C(=O)N1CCC[C@H]1C(=O)N[C@H](C)C(N)=O` [Example 65c, NAc-D2Nal^1 -D4ClPhe^2 -D3Pal^3 -Ser^4 -NMeTyr^5 -DLys(N-epsilon-Gly-3Pyridylacetyl)^6 -Leu^7 -Arg^8 -Pro^9 -DAla^10 NH2] (Ac-[d2Nal][dPhe(4-Cl)][d3Pal]S[NMeY][dK]([Gly-Acetyl(3-pyridyl)])LRP[dA]-NH2), the Kb was 0.0288 nM.
Then `CC(=O)N[C@@H](CO)C(=O)NCCCC[C@@H](NC(=O)[C@H](Cc1ccc(O)cc1)N(C)C(=O)[C@H](CO)NC(=O)[C@@H](Cc1cccnc1)NC(=O)[C@@H](Cc1ccc(Cl)cc1)NC(=O)[C@@H](Cc1ccc2ccccc2c1)NC(C)=O)C(=O)N[C@@H](CC(C)C)C(=O)N[C@@H](CCCNC(=N)N)C(=O)N1CCC[C@H]1C(=O)N[C@H](C)C(N)=O` [Example 9, NAc-D2Nal^1 -D4ClPhe^2 -D3Pal^3 -Ser^4 -NMeTyr^5 -DLys(N-epsilon-Ser-Acetyl)^6 -Leu^7 -Arg^8 -Pro^9 -DAla^10 NH2] (Ac-[d2Nal][dPhe(4-Cl)][d3Pal]S[NMeY][dK]([Ser-Ac])LRP[dA]-NH2), with 0.00891 nM; and `CC(=O)N[C@H](Cc1ccc2ccccc2c1)C(=O)N[C@H](Cc1ccc(Cl)cc1)C(=O)N[C@H](Cc1cccnc1)C(=O)N[C@@H](CO)C(=O)N(C)[C@@H](Cc1ccc(O)cc1)C(=O)N[C@H](CCCCNC(=O)[C@@H](Cc1cn(C=O)c2ccccc12)NC(=O)C1=C[C@@H](O)[C@@H](O)[C@H](O)C1)C(=O)N[C@@H](CC(C)C)C(=O)N[C@@H](CCCNC(=N)N)C(=O)N1CCC[C@H]1C(=O)N[C@H](C)C(N)=O` [Example 65a, NAc-D2Nal^1 -D4ClPhe^2 -D3Pal^3 -Ser^4 -NMeTyr^5 -DLys(N-epsilon-DTrp(Formyl)-Shikimyl)^6 -Leu^7 -Arg^8 -Pro^9 -DAla^10 NH2] (Ac-[d2Nal][dPhe(4-Cl)][d3Pal]S[NMeY][dK](X3)LRP[dA]-NH2), with 0.0251 nM.
The same measure for `CC(=O)N[C@H](Cc1ccc2ccccc2c1)C(=O)N[C@H](Cc1ccc(Cl)cc1)C(=O)N[C@H](Cc1cccnc1)C(=O)N[C@@H](CO)C(=O)N(C)[C@@H](Cc1ccc(O)cc1)C(=O)N[C@H](CCCCNC(=O)CNC(=O)c1cccnc1)C(=O)N[C@@H](CC(C)C)C(=O)N[C@@H](CCCCNC(C)C)C(=O)N1CCC[C@H]1C(=O)N[C@H](C)C(N)=O` [Example 1, NAc-D2Nal^1 -D4ClPhe^2 -D3Pal^3 -Ser^4 -NMeTyr^5 -DLys(N-epsilon-Gly-Nicotinyl)^6 -Leu^7 -Lys(N-epsilon-Isopropyl)^8 -Pro^9 -DAla^10 NH2] (Ac-[d2Nal][dPhe(4-Cl)][d3Pal]S[NMeY][dK]([Gly-Nicotinoyl])L[Lys(iPr)]P[dA]-NH2): 0.00355 nM; for `CC(=O)N[C@H](Cc1ccc2ccccc2c1)C(=O)N[C@H](Cc1ccc(Cl)cc1)C(=O)N[C@H](Cc1cccnc1)C(=O)N[C@@H](CO)C(=O)N(C)[C@@H](Cc1ccc(O)cc1)C(=O)N[C@H](CCCCNC(=O)CN(C)C(=O)c1cccnc1)C(=O)N[C@@H](CC(C)C)C(=O)N[C@@H](CCCCNC(C)C)C(=O)N1CCC[C@H]1C(=O)N[C@H](C)C(N)=O` [Example 4d, NAc-D2Nal^1 -D4ClPhe^2 -D3Pal^3 -Ser^4 -NMeTyr^5 -DLys(N-epsilon-Sar-Nicotinyl)^6 -Leu^7 -Lys(N-epsilon-Isopropyl)^8 -Pro^9 -DAla^10 NH2] (Ac-[d2Nal][dPhe(4-Cl)][d3Pal]S[NMeY][dK]([Sar-Nicotinoyl])L[Lys(iPr)]P[dA]-NH2): 0.0138 nM.
Then `CC(=O)N[C@H](Cc1ccc2ccccc2c1)C(=O)N[C@H](Cc1ccc(Cl)cc1)C(=O)N[C@H](Cc1cccnc1)C(=O)N[C@@H](CO)C(=O)N(C)[C@@H](Cc1ccc(Nc2n[nH]c(N)n2)cc1)C(=O)N[C@H](CCCCNC(=O)CNC(=O)c1cccnc1)C(=O)N[C@@H](CC(C)C)C(=O)N[C@@H](CCCCNC(C)C)C(=O)N1CCC[C@H]1C(=O)N[C@H](C)C(N)=O` [Example 45, NAc-D2Nal^1 -D4ClPhe^2 -D3Pal^3 -Ser^4 -NMePhe(Atz)^5 -DLys(N-epsilon-Gly-Nicotinyl)^6 -Leu^7 -Lys(N-epsilon-Isopropyl)^8 -Pro^9 -DAla^10 NH2] (Ac-[d2Nal][dPhe(4-Cl)][d3Pal]S[NMePhe(4-NH(5-NH2-Trz-3-yl))][dK]([Gly-Nicotinoyl])L[Lys(iPr)]P[dA]-NH2), with 0.00417 nM; and `CC(=O)N[C@H](Cc1ccc2ccccc2c1)C(=O)N[C@H](Cc1ccc(Cl)cc1)C(=O)N[C@H](Cc1cccnc1)C(=O)N[C@@H](CO)C(=O)N(C)[C@@H](Cc1ccc(O)cc1)C(=O)N[C@H](CCCCNC(=O)NCCNC(=O)c1cccnc1)C(=O)N[C@@H](CC(C)C)C(=O)N[C@@H](CCCCNC(C)C)C(=O)N1CCC[C@H]1C(=O)N[C@H](C)C(N)=O` [Example 62, NAc-D2Nal^1 -D4ClPhe^2 -D3Pal^3 -Ser^4 -NMeTyr^5 -DLys(N-epsilon-N'-Carbonyl-Diaminoethane-N"-Nicotinyl)^6 -Leu^7 -Lys(N-epsilon-Isopropyl)^8 -Pro^9 -DAla^10 NH2] (Ac-[d2Nal][dPhe(4-Cl)][d3Pal]S[NMeY][dK]([CO-Ethylenediamine-Nicotinoyl])L[Lys(iPr)]P[dA]-NH2), with 0.0263 nM; and `CC(=O)N[C@H](Cc1ccc2ccccc2c1)C(=O)N[C@H](Cc1ccc(Cl)cc1)C(=O)N[C@H](Cc1cccnc1)C(=O)N[C@@H](CO)C(=O)N(C)[C@@H](Cc1ccc(O)cc1)C(=O)N[C@H](CCCCNC(=O)CCNC(=O)C1=C[C@@H](O)[C@@H](O)[C@H](O)C1)C(=O)N[C@@H](CC(C)C)C(=O)N[C@@H](CCCNC(=N)N)C(=O)N1CCC[C@H]1C(=O)N[C@H](C)C(N)=O` [Example 48g, NAc-D2Nal^1 -D4ClPhe^2 -D3Pal^3 -Ser^4 -NMeTyr^5 -DLys(N-epsilon-Beta-alanyl-Shikimyl)^6 -Leu^7 -Arg^8 -Pro^9 -DAla^10 NH2] (Ac-[d2Nal][dPhe(4-Cl)][d3Pal]S[NMeY][dK]([βAla-Shikimoyl])LRP[dA]-NH2), with 0.0126 nM.
Take `CC(=O)N[C@H](Cc1ccc2ccccc2c1)C(=O)N[C@H](Cc1ccc(Cl)cc1)C(=O)N[C@H](Cc1cccnc1)C(=O)N[C@@H](CO)C(=O)N(C)[C@@H](Cc1ccc(O)cc1)C(=O)N[C@H](CCCCNC(=O)NNC(=O)c1cccnc1)C(=O)N[C@@H](CC(C)C)C(=O)N[C@@H](CCCCNC(C)C)C(=O)N1CCC[C@H]1C(=O)N(C)CC(N)=O` [Example 60, NAc-D2Nal^1 -D4ClPhe^2 -D3Pal^3 -Ser^4 -NMeTyr^5 -DLys(N-epsilon-Azagly-Nicotinyl)^6 -Leu^7 -Lys(N-epsilon-Isopropyl)^8 -Pro^9 -Sar^10 NH2] (Ac-[d2Nal][dPhe(4-Cl)][d3Pal]S[NMeY][dK]([azaGly-Nicotinoyl])L[Lys(iPr)]P[Sar]-NH2): the antagonist dissociation constant (Kb) was 0.0282 nM.
Then `CC(=O)N[C@H](Cc1ccc2ccccc2c1)C(=O)N[C@H](Cc1ccc(Cl)cc1)C(=O)N[C@H](Cc1cccnc1)C(=O)N[C@@H](CO)C(=O)N(C)[C@@H](Cc1ccc(O)cc1)C(=O)N[C@H](CCCCNC(=O)NNC(=O)c1cc2ccccc2cc1O)C(=O)N[C@@H](CC(C)C)C(=O)N[C@@H](CCCCNC(C)C)C(=O)N1CCC[C@H]1C(=O)N[C@H](C)C(N)=O` [Example 5d, NAc-D2Nal^1 -D4ClPhe^2 -D3Pal^3 -Ser^4 -NMeTyr^5 -DLys[N-epsilon-Azagly-(3-OH-2-Naphthoyl)]^6 -Leu^7 -Lys(N-epsilon-Isopropyl)^8 -Pro^9 -DAla^10 NH2] (Ac-[d2Nal][dPhe(4-Cl)][d3Pal]S[NMeY][dK]([azaGly-X1])L[Lys(iPr)]P[dA]-NH2), with 0.055 nM; and `CC(=O)N[C@H](Cc1ccc2ccccc2c1)C(=O)N[C@H](Cc1ccc(Cl)cc1)C(=O)N[C@H](Cc1cccnc1)C(=O)N[C@@H](CO)C(=O)N(C)[C@@H](Cc1ccc(O)cc1)C(=O)N[C@H](CCCCNC(=O)[C@@H](Cc1c[nH]cn1)NC(=O)C1=C[C@@H](O)[C@@H](O)[C@H](O)C1)C(=O)N[C@@H](CC(C)C)C(=O)N[C@@H](CCCNC(=N)N)C(=O)N1CCC[C@H]1C(=O)N[C@H](C)C(N)=O` [Example 38e, NAc-D2Nal^1 -D4ClPhe^2 -D3Pal^3 -Ser^4 -NMeTyr^5 -DLys(N-epsilon-DHis-Shikimyl)^6 -Leu^7 -Arg^8 -Pro^9 -DAla^10 NH2] (Ac-[d2Nal][dPhe(4-Cl)][d3Pal]S[NMeY][dK]([dH-Shikimoyl])LRP[dA]-NH2), with 0.0437 nM; and `CC(=O)N[C@H](Cc1ccc2ccccc2c1)C(=O)N[C@H](Cc1ccc(Cl)cc1)C(=O)N[C@H](Cc1cccnc1)C(=O)N[C@@H](CO)C(=O)N(C)[C@@H](Cc1ccc(O)cc1)C(=O)N[C@H](CCCCNC(=O)CNC(=O)c1ccoc1)C(=O)N[C@@H](CC(C)C)C(=O)N[C@@H](CCCNC(=N)N)C(=O)N1CCC[C@H]1C(=O)N[C@H](C)C(N)=O` [Example 51a, NAc-D2Nal^1 -D4ClPhe^2 -D3Pal^3 -Ser^4 -NMeTyr^5 -DLys(N-epsilon-Gly-3-Furoyl)^6 -Leu^7 -Arg^8 -Pro^9 -DAla^1 -NH2] (Ac-[d2Nal][dPhe(4-Cl)][d3Pal]S[NMeY][dK]([Gly-X2])LRP[dA]-NH2), with 0.011 nM.
